Experiments:
awake guinea pigs = experiment: Awake guinea-pig telemetry model: QT intervals in electrocardiograms; format: in vivo; settings: 50 mg/kg IV
Procedure: Compounds were dosed IV, and ECG's and heart rate were measured. QT intervals were corrected (QTc) for any change in heart rate.

HERG1 channel [1] = target: T1, HERG1 channel (Homo sapiens, UniProt Q12809); experiment: HERG1 current by 2-electrode voltage clamp in Xenopus laevis oocytes transiently expressing HERG1 channels; format: cell-based
T1 construct: expressed in transfected cells; host or cells: Xenopus laevis oocytes (transient expression, vector pXOOM)
T1 sequence (Q12809 whole entry): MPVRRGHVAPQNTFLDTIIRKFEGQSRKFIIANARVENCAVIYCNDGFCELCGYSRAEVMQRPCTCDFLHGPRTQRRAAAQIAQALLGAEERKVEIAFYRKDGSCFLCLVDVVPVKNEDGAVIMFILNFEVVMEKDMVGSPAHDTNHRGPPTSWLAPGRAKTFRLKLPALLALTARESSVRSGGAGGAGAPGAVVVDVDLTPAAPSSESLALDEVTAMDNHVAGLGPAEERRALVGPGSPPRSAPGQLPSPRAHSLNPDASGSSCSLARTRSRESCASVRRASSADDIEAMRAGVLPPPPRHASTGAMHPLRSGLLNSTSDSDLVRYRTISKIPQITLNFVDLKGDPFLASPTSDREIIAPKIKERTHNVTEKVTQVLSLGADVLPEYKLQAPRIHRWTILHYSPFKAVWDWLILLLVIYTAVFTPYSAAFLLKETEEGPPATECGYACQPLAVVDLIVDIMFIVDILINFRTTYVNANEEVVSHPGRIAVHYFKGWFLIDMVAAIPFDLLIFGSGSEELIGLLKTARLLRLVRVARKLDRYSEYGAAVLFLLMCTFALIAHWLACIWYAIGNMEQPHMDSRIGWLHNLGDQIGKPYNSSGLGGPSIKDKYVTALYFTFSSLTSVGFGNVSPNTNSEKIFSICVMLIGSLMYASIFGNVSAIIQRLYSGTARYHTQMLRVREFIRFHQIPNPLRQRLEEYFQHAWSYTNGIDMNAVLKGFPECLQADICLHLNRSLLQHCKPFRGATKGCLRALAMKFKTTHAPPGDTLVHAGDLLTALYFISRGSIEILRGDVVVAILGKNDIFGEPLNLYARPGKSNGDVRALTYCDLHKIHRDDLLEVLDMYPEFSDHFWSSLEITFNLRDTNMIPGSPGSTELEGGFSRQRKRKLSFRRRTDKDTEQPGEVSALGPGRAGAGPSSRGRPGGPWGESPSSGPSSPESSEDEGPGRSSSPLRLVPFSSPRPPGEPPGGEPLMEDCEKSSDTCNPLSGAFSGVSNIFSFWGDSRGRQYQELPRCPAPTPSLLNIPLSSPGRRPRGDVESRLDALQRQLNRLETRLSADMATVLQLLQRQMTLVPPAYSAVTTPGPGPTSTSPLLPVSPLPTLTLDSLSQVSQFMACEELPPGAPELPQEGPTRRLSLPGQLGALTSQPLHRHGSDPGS
Procedure: The HERG1 channel is expressed in HEK293 cells. The gene encoding the HERG1 channel was cloned as described by Warmke & Ganetzky, Proc. Natl. Acad. Sci. USA 1994 91 3438-3442.
(§1) To ensure functional expression in HEK293 cells, the HERG1 gene was sub-cloned in the shuttle-vector pXOOM as described by Jespersen et al.; Biotechniques 2002 32 536-540.
The electrical current through the HERG1 channel is measured using 2-electrode voltage clamp technology. HERG1 current is activated by a step protocol.
In brief, this protocol goes from a resting membrane potential of −80 mV (lasting 3 seconds) to a 1 second depolarisation step at +10 mV, followed by a repolarisation step at −60 mV. The protocol is repeated up to 500 times.
Xenopus laevis oocytes transiently expressing HERG1 channels where challenged by a voltage protocol from −80 mV to +10 mV to −60 mV. This protocol was repeated every 7th second until a stable current level was obtained.

HERG1 channel [2] = target: T1, HERG1 channel; experiment: HERG1 current by patch clamp with simulated cardiac action potential in HEK293 cells stably expressing HERG1 channels; format: cell-based
Procedure: In this example the HERG1 channel opening activity of a diphenyl urea derivative for use according to the invention, 1-(3-Trifluoromethyl-phenyl)-3-(2-hydroxy-5-chlorophenyl)-urea (Compound A), is determined using mammalian HEK293 cells stably expressing HERG1 channels.
The HERG1 channel is expressed in HEK293 cells. The gene encoding the HERG1 channel was cloned as described by Warmke & Ganetzky; Proc. Natl. Acad. Sci. USA 1994 91 3438-3442.
as §1
Mammalian expression is obtained by stable transfection of the gene construct in HEK293 cells.
The electrical current through the HERG1 channel is measured using patch clamp technology. HERG1 current is activated by simulated cardiac action potentials.
In brief, this protocol goes from a resting membrane potential of −90 mV to a short initial depolarisation step to +30 mV, followed by a ramp ending at 0 mV. This plateau phase is ended by a repolarisation, going from −15 mV to −90 mV in 70 ms, back to the resting membrane potential, as also shown in the voltage protocol in FIG. 1.
Having reached a stable current level, Compound A was added.

native cardiac myocytes = experiment: Modulation of action potentials in native cardiac myocytes (patch clamp, current clamp mode); format: cell-based, guinea pig
Procedure: In this example the activity on native cardiac myocytes from guinea pigs of a compound representative of the invention, 1,3-Bis-(2-hydroxy-5-trifluoromethyl-phenyl)-urea (Compound C), obtained as described in WO 2002/064128, is determined.
The membrane potential of native cardiomyocytes was determined using the patch clamp technique in current clamp mode. The membrane potential was adjusted to approximately −80 mV before start of experiments. Cells were challenged by 20 repetitive rounds of current applications. A single round of application was as follows: Action potentials were evoked by applying a single current pulse of 1 nA lasting from 5-15 ms. The single pulse was followed by 30 repetitive pulses lasting 1-5 ms and with a current amplitude of 100-700 pA. The repetitive pulses were applied at the end of the evoked action potential. These experiments were conducted in the presence or absence of Compound C.
Native cardiomyocytes responded to the described voltage protocol by eliciting an actionpotential.

[3] = native guinea pig cardiomyocytes, current clamp, Example 3

Compound | melting point | further results
O=C(Nc1cccc(C(F)(F)F)c1)Nc1ccc(Br)cc1-c1nnn[nH]1 [Compound B, 1-(3-Trifluoromethyl-phenyl)-3-[2-(1H-tetrazol-5-yl)-4-bromo-phenyl] urea] | – | reduction of the length of the corrected QT interval (QTc) compared to controls (awake guinea pigs): 23%
O=C(Nc1ncccn1)Nc1ccccc1C(F)(F)F [Compound 2, 1-Pyrimidin-2-yl-3-(2-trifluoromethyl-phenyl)-urea] | 224 to 225 °C | –
O=C(Nc1cccc(C(F)(F)F)c1)Nc1cc(Cl)ccc1O [Compound A, 1-(3-Trifluoromethyl-phenyl)-3-(2-hydroxy-5-chlorophenyl)-urea] | – | repolarisation current (HERG1 channel [2]; HEK293 cells stably expressing HERG1, simulated cardiac action potential, 10 μM (FIG. 1)): marked increase; current during the last phase of the cardiac simulating voltage protocol (repolarisation current) (HERG1 channel [2]; HEK293 cells, 3-30 μM): increase; HERG1 current in the first 200 ms of the resting phase (HERG1 channel [2]; HEK293 cells, simulated cardiac action potential): increased
O=C(Nc1cc(C(F)(F)F)ccc1O)Nc1ccccc1C(F)(F)F [Compound 1, 1-(2-Hydroxy-5-trifluoromethyl-phenyl)-3-(2-trifluoromethyl-phenyl)-urea] | 158 to 159 °C | –
O=C(Nc1cc(Cl)ccc1O)Nc1ccccc1C(F)(F)F [Compound 3, 1-(5-Chloro-2-hydroxy-phenyl)-3-(2-trifluoromethyl-phenyl)-urea] | 183 to 184 °C | –
O=C(Nc1cc(C(F)(F)F)ccc1O)Nc1cc(C(F)(F)F)ccc1O [Compound C, 1,3-Bis-(2-hydroxy-5-trifluoromethyl-phenyl)-urea] | – | cardiac action potential duration (native cardiac myocytes; [3]): shorting of the cardiac action potential; membrane potential in the presence of the 30 repetitive pulses (native cardiac myocytes; [3]): stable membrane potential; rounds of current applications in which stabilisation was observed (native cardiac myocytes; of 20 rounds of current applications): 20 rounds

Continued, in another order:

melting point | Compound | further results
156 °C (dec.) | O=C(Nc1ccc(-c2ccccc2)cc1-c1nnn[nH]1)c1cc(C(F)(F)F)cc(C(F)(F)F)c1 [Compound 15, N-[3-(1H-Tetrazol-5-yl)-biphenyl-4-yl]-3,5-bis-trifluoromethyl-benzamide] | HERG1 current (HERG1 channel [1]; 1-30 μM): increase; repolarisation current recorded at −60 mV (HERG1 channel [1]; voltage protocol −80 mV to +10 mV to −60 mV (FIG. 2)): marked increase
> 219 °C (dec.) | O=C(Nc1ccc(Nc2ccc(Cl)cc2)c(Cl)c1)c1cc([N+](=O)[O-])ccc1O [Compound 17, N-[3-Chloro-4-(4-chloro-phenylamino)-phenyl]-2-hydroxy-5-nitro-benzamide] | –
184.5 to 189.3 °C | CN(C)C(=O)CCc1ccc(NC(=O)Nc2ccc(Cl)c(C(F)(F)F)c2)c(-c2nnn[nH]2)c1 [Compound 11, 3-[4-[3-(4-Chloro-3-trifluoromethyl-phenyl)-ureido]-3-(1H-tetrazol-5-yl)-phenyl]-N,N-dimethyl-propionamide] | –
> 300 °C | O=C(Nc1cccc(C(F)(F)F)c1)Nc1c(C(=O)O)[nH]c(=O)[nH]c1=O [Compound 7, 2,6-Dioxo-5-[3-(3-trifluoromethyl-phenyl)-ureido]-1,2,3,6-tetrahydro-pyrimidine-4-carboxylic acid] | –
> 300 °C | O=C(Nc1cccc(C(F)(F)F)c1)Nc1nccnc1C(=O)O [Compound 8, 3-[3-(3-Trifluoromethyl-phenyl)-ureido]-pyrazine-2-carboxylic acid] | –
195 to 197 °C | O=C(Nc1ccccc1F)Nc1cc(Cl)ccc1C(=O)O [Compound 9, 4-Chloro-2-[3-(2-fluoro-phenyl)-ureido]-benzoic acid] | –
223 to 224 °C | COc1ccc(NC(=O)Nc2cccc(C(F)(F)F)c2)c(O)n1 [Compound 4, 1-(2-Hydroxy-6-methoxy-pyridin-3-yl)-3-(3-trifluoromethyl-phenyl)-urea] | –
234 to 236 °C | O=C(Nc1cc(Cl)cc(Cl)c1)Nc1ccc(Cl)cc1-c1nnn[nH]1 [Compound 12, 1-[4-Chloro-2-(1H-tetrazol-5-yl)-phenyl]-3-(3,5-dichloro-phenyl)-urea] | –

— patent publication US7851492B2, “ERG channel openers for the treatment of cardiac arrhythmias” (Neurosearch A/S, priority 2003, dated 2010)
